ChEMBL document CHEMBL2413056, “Adipogenetic effects of retrofractamide A derivatives in 3T3-L1 cells” (Bioorg Med Chem Lett, 2013)
Activity calls are given as the source filed them. The calls are words filed in the database; no cut-off is given here.

Experiments:
3T3-L1 [1] = assay: Increase of 2-deoxyglucose uptake in mouse 3T3L1 cells using 2-deoxy-D-(2,6-3H)-glucose at 1 uM after 2 hrs by liquid scintillation counting; type: functional, cell-based
3T3-L1 [2] = assay: Increase of C/EBPdelta mRNA expression in mouse 3T3L1 cells at 30 uM by RT-PCR analysis relative to beta-actin mRNA level; type: functional
3T3-L1 [3] = assay: Increase of C/EBPbeta mRNA expression in mouse 3T3L1 cells at 30 uM by RT-PCR analysis relative to beta-actin mRNA level; type: functional
3T3-L1 [4] = assay: Increase of C/EBPalpha mRNA expression in mouse 3T3L1 cells at 30 uM by RT-PCR analysis relative to beta-actin mRNA level; type: functional
3T3-L1 [5] = assay: Increase of aP2 mRNA expression in mouse 3T3L1 cells at 30 uM by RT-PCR analysis relative to beta-actin mRNA level; type: functional
3T3-L1 [6] = assay: Increase of GLUT4 mRNA expression in mouse 3T3L1 cells at 30 uM by RT-PCR analysis relative to beta-actin mRNA level; type: functional
3T3-L1 [7] = assay: Increase of PPARgamma2 mRNA expression in mouse 3T3L1 cells at 30 uM by RT-PCR analysis relative to beta-actin mRNA level; type: functional
3T3-L1 [8] = assay: Increase of adiponectin mRNA expression in mouse 3T3L1 cells at 30 uM by RT-PCR analysis relative to beta-actin mRNA level; type: functional
3T3-L1 [9] = assay: Increase of C/EBPdelta mRNA expression in mouse 3T3L1 cells at 10 uM by RT-PCR analysis relative to beta-actin mRNA level; type: functional
3T3-L1 [10] = assay: Increase of C/EBPbeta mRNA expression in mouse 3T3L1 cells at 10 uM by RT-PCR analysis relative to beta-actin mRNA level; type: functional
3T3-L1 [11] = assay: Increase of C/EBPalpha mRNA expression in mouse 3T3L1 cells at 10 uM by RT-PCR analysis relative to beta-actin mRNA level; type: functional
3T3-L1 [12] = assay: Increase of aP2 mRNA expression in mouse 3T3L1 cells at 10 uM by RT-PCR analysis relative to beta-actin mRNA level; type: functional
3T3-L1 [13] = assay: Increase of GLUT4 mRNA expression in mouse 3T3L1 cells at 10 uM by RT-PCR analysis relative to beta-actin mRNA level; type: functional
3T3-L1 [14] = assay: Increase of PPARgamma2 mRNA expression in mouse 3T3L1 cells at 10 uM by RT-PCR analysis relative to beta-actin mRNA level; type: functional
3T3-L1 [15] = assay: Increase of adiponectin mRNA expression in mouse 3T3L1 cells at 10 uM by RT-PCR analysis relative to beta-actin mRNA level; type: functional
3T3-L1 [16] = assay: Increase of C/EBPdelta mRNA expression in mouse 3T3L1 cells at 3 uM by RT-PCR analysis relative to beta-actin mRNA level; type: functional
3T3-L1 [17] = assay: Increase of C/EBPbeta mRNA expression in mouse 3T3L1 cells at 3 uM by RT-PCR analysis relative to beta-actin mRNA level; type: functional
3T3-L1 [18] = assay: Increase of C/EBPalpha mRNA expression in mouse 3T3L1 cells at 3 uM by RT-PCR analysis relative to beta-actin mRNA level; type: functional
3T3-L1 [19] = assay: Increase of aP2 mRNA expression in mouse 3T3L1 cells at 3 uM by RT-PCR analysis relative to beta-actin mRNA level; type: functional
3T3-L1 [20] = assay: Increase of GLUT4 mRNA expression in mouse 3T3L1 cells at 3 uM by RT-PCR analysis relative to beta-actin mRNA level; type: functional
3T3-L1 [21] = assay: Increase of PPARgamma2 mRNA expression in mouse 3T3L1 cells at 3 uM by RT-PCR analysis relative to beta-actin mRNA level; type: functional
3T3-L1 [22] = assay: Increase of adiponectin mRNA expression in mouse 3T3L1 cells at 3 uM by RT-PCR analysis relative to beta-actin mRNA level; type: functional
3T3-L1 [23] = assay: Increase of 2-deoxyglucose uptake in mouse 3T3L1 cells using 2-deoxy-D-(2,6-3H)-glucose after 2 hrs by liquid scintillation counting; type: functional, cell-based
[24] = Cytotoxicity against mouse 3T3L1 cells assessed as cell viability at 30 uM by CCK8 assay relative to control; type: cell-based; conditions: 3T3-L1 cells, read-out: Activity
[25] = Cytotoxicity against mouse 3T3L1 cells assessed as cell viability at 10 uM by CCK8 assay relative to control; type: cell-based; conditions: 3T3-L1 cells, read-out: Activity
[26] = Cytotoxicity against mouse 3T3L1 cells assessed as cell viability at 3 uM by CCK8 assay relative to control; type: cell-based; conditions: 3T3-L1 cells, read-out: Activity
[27] = Cytotoxicity against mouse 3T3L1 cells assessed as cell viability at 1 uM by CCK8 assay relative to control; type: cell-based; conditions: 3T3-L1 cells, read-out: Activity
[28] = Cytotoxicity against mouse 3T3L1 cells assessed as cell viability at 0.3 uM by CCK8 assay relative to control; type: cell-based; conditions: 3T3-L1 cells, read-out: Activity
3T3-L1 [29] = assay: Adipogenetic activity in mouse 3T3L1 cells assessed as increase in triglyceride level at 30 uM relative to control; type: functional
3T3-L1 [30] = assay: Adipogenetic activity in mouse 3T3L1 cells assessed as increase in triglyceride level at 10 uM relative to control; type: functional
[31] = target: T1, Peroxisome proliferator-activated receptor gamma (Homo sapiens) (UniProt P37231); assay: Agonist activity at PPARgamma (unknown origin) at 0.01 to 100 uM by nuclear receptor cofactor assay
T1 sequence (whole entry): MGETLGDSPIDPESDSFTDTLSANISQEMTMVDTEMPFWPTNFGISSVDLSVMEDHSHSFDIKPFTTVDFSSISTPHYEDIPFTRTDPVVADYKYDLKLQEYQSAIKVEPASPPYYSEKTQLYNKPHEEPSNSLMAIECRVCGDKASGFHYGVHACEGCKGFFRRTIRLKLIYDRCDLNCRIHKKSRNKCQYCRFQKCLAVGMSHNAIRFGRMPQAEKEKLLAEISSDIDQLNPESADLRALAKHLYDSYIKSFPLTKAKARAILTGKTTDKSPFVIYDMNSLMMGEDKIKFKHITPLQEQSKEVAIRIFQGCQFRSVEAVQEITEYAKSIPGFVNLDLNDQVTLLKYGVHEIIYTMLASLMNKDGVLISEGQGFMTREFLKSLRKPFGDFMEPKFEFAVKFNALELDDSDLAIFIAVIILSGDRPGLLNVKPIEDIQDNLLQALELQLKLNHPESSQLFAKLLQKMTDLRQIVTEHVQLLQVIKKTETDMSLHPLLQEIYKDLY

Cc1c(C)c2c(c(C)c1O)CCC(C)(COc1ccc(CC3SC(=O)NC3=O)cc1)O2 (stereo not drawn)
Activity (3T3-L1 [1]): Active

CCCCCNC(=O)/C=C/C=C/CC/C=C/c1ccc2c(c1)OCO2
Ratio (3T3-L1 [2]): 2.64 | Ratio (3T3-L1 [3]): 2.91 | Ratio (3T3-L1 [4]): 4.91 | Ratio (3T3-L1 [5]): 3.09 | Ratio (3T3-L1 [6]): 4.22 | Ratio (3T3-L1 [7]): 2.57 | Ratio (3T3-L1 [8]): 2.16 | Ratio (3T3-L1 [9]): 1.5 | Ratio (3T3-L1 [10]): 1.6 | Ratio (3T3-L1 [11]): 1.27 | Ratio (3T3-L1 [12]): 3.18 | Ratio (3T3-L1 [13]): 3.89 | Ratio (3T3-L1 [14]): 1.76 | Ratio (3T3-L1 [15]): 1.3 | Ratio (3T3-L1 [16]): 0.79 | Ratio (3T3-L1 [17]): 0.98 | Ratio (3T3-L1 [18]): 0.81 | Ratio (3T3-L1 [19]): 0.86 | Ratio (3T3-L1 [20]): 1.55 | Ratio (3T3-L1 [21]): 0.88 | Ratio (3T3-L1 [22]): 1.04 | Activity (3T3-L1 [23]): Dose-dependent effect | viability at 30 µM [24]: 107% | viability at 10 µM [25]: 99% | viability at 3 µM [26]: 105% | viability at 1 µM [27]: 102% | viability at 0.3 µM [28]: 98.7% | Activity (3T3-L1 [29]): 58.8% | Activity (3T3-L1 [30]): 55.4% | Activity [31]: Active

OC/C=C/C=C/CC/C=C/c1ccc2c(c1)OCO2
Activity (3T3-L1 [30]): 0.6%

O=C(/C=C/C=C/CC/C=C/c1ccc2c(c1)OCO2)N1CCCCC1 [DEHYDROPIPERNOLINE]
Activity (3T3-L1 [30]): 21.6%

CC(C)NC(=O)/C=C/C=C/CC/C=C/c1ccc2c(c1)OCO2
viability at 30 µM [24]: 102% | viability at 10 µM [25]: 96.1% | viability at 3 µM [26]: 96.6% | viability at 1 µM [27]: 94.8% | viability at 0.3 µM [28]: 95% | Activity (3T3-L1 [29]): 43.1% | Activity (3T3-L1 [30]): 39.4%

CCCNC(=O)/C=C/C=C/CC/C=C/c1ccc2c(c1)OCO2
viability at 30 µM [24]: 68.4% | viability at 10 µM [25]: 87.5% | viability at 3 µM [26]: 102% | viability at 1 µM [27]: 104% | viability at 0.3 µM [28]: 101% | Activity (3T3-L1 [29]): 18.7% | Activity (3T3-L1 [30]): 42.7%

CC(C)COC(=O)/C=C/C=C/CC/C=C/c1ccc2c(c1)OCO2
viability at 30 µM [24]: 21.7% | Activity (3T3-L1 [29]): 21.7% | Activity (3T3-L1 [30]): 20%

COC(=O)/C=C/C=C/CC/C=C/c1ccc2c(c1)OCO2
Activity (3T3-L1 [29]): 4% | Activity (3T3-L1 [30]): 4.6%

CC(C)CNC(=O)/C=C/C=C/CC/C=C/c1ccc2c(c1)OCO2 [RETROFRACTAMIDE A]
viability at 30 µM [24]: 109% | viability at 10 µM [25]: 108% | viability at 3 µM [26]: 109% | viability at 1 µM [27]: 98.1% | viability at 0.3 µM [28]: 100% | Activity (3T3-L1 [29]): 22.9% | Activity (3T3-L1 [30]): 38%

CC(C)CNC(=O)CCCCCCCCc1ccc2c(c1)OCO2
viability at 30 µM [24]: 109% | viability at 10 µM [25]: 111% | viability at 3 µM [26]: 104% | viability at 1 µM [27]: 105% | viability at 0.3 µM [28]: 99.3% | Activity (3T3-L1 [29]): 31.9% | Activity (3T3-L1 [30]): 13.3%

CCCCNC(=O)/C=C/C=C/CC/C=C/c1ccc2c(c1)OCO2
viability at 30 µM [24]: 78.7% | viability at 10 µM [25]: 69.3% | viability at 3 µM [26]: 87.1% | viability at 1 µM [27]: 94.8% | viability at 0.3 µM [28]: 96.2% | Activity (3T3-L1 [29]): 46.2% | Activity (3T3-L1 [30]): 55.9%
